One substance from patent US20030130200A1, “Small peptides and methods for treatment of asthma and inflammation” (Hisatek, LLC, priority 1997, published 2003) can be followed below.

The assay relates to type II collagen arthritis. The assay can be described thus: Induced type II collagen arthritis mouse model. Type of assay: in vivo, mouse (DBA/1 male). Particulars: HK-X TC or footpad, 0.4 or 4 mg/kg for 20 days; x-ray and histology. From the text:
A mouse model is used to evaluate the effect of the compounds of the present invention on the histological, radiographic and clinical appearance of induced type II collagen arthritis. Mice: DBA/1(2) male mice weighing 25 gms (Jackson Laboratories, Bar Harbor, Me. or B&K Universal, Kent Wash.) are used for this work. This strain of mouse is susceptible to CIA by the injection of heterologous type II collagen. Bovine Collagen (BC), Complete Freund's Adjuvant (CFA) and Incomplete Freund's Adjuvant (ICFA) can be obtained from Sigma Chemical. Antigen for immunization is processed in 0.1 M acetic acid and formulated with CFA or ICFA. […] The degree of cellularity and areas of inflammation are quantified by using digitization of histological photomicrographs and applying standard area and point counting techniques as described above. […] The average area of soft tissue (pannus) of the joint is determined by analysis of computer digitized radiographs, along with changes in density of the adjacent hard tissues by comparison with internal standards included with each radiograph. […] The significance of the differences in density and area for control and experimental mice is assessed using paired T-tests at each time point. […] Swelling of hind paws is also quantitated by measuring the thickness of the ankle from the medial to the lateral malledus with a constant tension caliper. […]

Where no end group is shown, it is not given here. The star is where a group is joined. For = O=C*

For the substance “f-Met-Leu-Phe-Phe (For-MLFF) [Example 9]”, the Degree of arthritis entry was “reduce the degree of arthritis”.
